Columns and labels:
[1] = tested on: lens-induced myopia (LIM) chick eyes; experiment: Lens-induced myopia (LIM) in chicks, axial length by ultrasonic A-scan; assay type: in vivo
Method: (§1) Chicks age day 7 are divided into 2 groups, lens-induced myopia (LIM) and age-matched control (CTL), randomly. Chick eyes are measured with ultrasonic A-scan and refractive index by retinoscope by a single-masked operator. A computer-controlled randomization is applied to assign either left or right eye for LIM treatment and contralateral eye served as untouch control. Baseline physiological data is acquired on day 7. Purified rosiglitazone (>99%) is purchased from manufacturer and dissolved in 100% Dimethyl sulfoxide (DMSO). A working rosiglitazone solution is prepared in the concentration of 5 mM in 2% DMSO, PBS solution prior use. The rosiglitazone (5 mM, 10 μL) is delivered by intravitreal injection in the LIM eye once a day for 3 consecutive days. A-10 D lens is applied soon after drug delivery. Chick eyes are measured again on day 10 to access the effect of rosiglitazone.
as §1, with “Further, the effect of rosiglitazone in lower dosages is also investigated. Briefly, chicks age” for “Chicks age”, “into 3” for “into 2”, “myopia with higher dosage (LIM with 1 mM, n=7), lens-induced myopia with lower dosage (LIM with 0.2 mM, n=7)” for “myopia (LIM)”, “control (CTL, n=2),” for “control (CTL),”, “as untouched” for “as untouch”, “rosiglitazone (1 mM, 10 μL or 0.2” for “rosiglitazone (5”
Referring to FIG. 1, the rosiglitazone treatment has shown a consistent effect on slowing myopia progression by an average of 65% using different batches of chicks when compared to independent age-matched chicks subjected to LIM treatment. The effect of myopia inhibition is reduced with dose with an exponential regression of y=1.14e^−0.57x, R^2=1) to 37% of inhibition in 1 mM drug and 21% of inhibition in 0.2 mM drug treatment group.

[2] = in vivo
[3] = tested on: normal growing eye; experiment: Effect of rosiglitazone on normal chick eyes; assay type: in vivo; settings: 5 mM, 10 μL intravitreal injection once a day for 3 days, two time points (FIG. 2)

CN(CCOc1ccc(CC2SC(=O)NC2=O)cc1)c1ccccn1 (stereo not drawn) [rosiglitazone]
inhibition of myopia (axial length) ([1]; 0.2 mM, 10 μL intravitreal injection once a day for 3 days, -10 D lens, measured day 10): 21%
inhibition of myopia (axial length) ([1]; 1 mM, 10 μL intravitreal injection once a day for 3 days, -10 D lens, measured day 10): 37%
slowing myopia progression (axial length), inhibition vs age-matched LIM chicks ([1]; 5 mM, 10 μL intravitreal injection once a day for 3 days, -10 D lens, measured day 10, average over different batches of chicks): 65%
suppression of axial length growth ([1]; dose-dependent, summary statement, dose not given): 65%
toxicity in animal models [2]: no sign of toxicity
effect on normal growing eye or inducing hyperopia in naked eye [3]: no statistically significant effect
